Like-named read-outs stand apart in the source and are kept apart here. Marks after values point to notes of the source that are not given here.
Tests used:
[1] = In vitro plasma stability; type: in vitro ADME; settings: rat plasma, 37° C., 30 minutes incubation, HPLC
Excerpt: The compounds were extracted back into acetonitrile with rigorous vortex.

[2] = test system: carrageenan-induced rat paw edema; test: Carrageenan-induced rat paw edema; type: in vivo; settings: 75 mg/kg equivalent dose of aspirin, p.o.; for Rat paw edema (% inhibition) 1 hour / Rat paw edema (% inhibition) 2 hour / Rat paw edema (% inhibition) 4 hour / Rat paw edema (% inhibition) 6 hour: Mean ± SEM, n = 6
[3] = both, Sprague-Dawley, rat, in vivo, po, 35 mg/kg
rats [4] = settings: rat, in vivo, po, 100 mg/kg
convulsant metrazol [5] = test: Subcutaneous Metrazol Seizure Threshold Test (scMET), Test 1, mice i.p.; type: in vivo; settings: Mus musculus, ip, symbol = dose with activity
mice = settings: for toxicity (in words): Test 1, mice i.p.; for Rotorod Toxicity 0.5 h / Rotorod Toxicity 4.0 h: mice, i.p., symbol = dose with toxicity
rats [6] = test: Neurotoxicity, rats p.o. (Test 2 and Test 3)
Excerpt: Acute Toxicity—Minimal Motor Impairment (MMI): To assess a compound's undesirable side effects (toxicity), animals were monitored for overt signs of impaired neurological or muscular function.
Groups of at least 8 rats received various doses of the candidate compound until at least two points were established between the limits of 100 percent protection or toxicity and zero percent protection or minimal toxicity. The 95 percent confidence limits, slopes of the regression lines and standard errors of the slopes were calculated for each quantitative determination. Rats received test compounds orally.
This secondary evaluation determines the time to peak effect (TPE), neurotoxicity, median effective dose (ED50) and biological response.

convulsant metrazol [7] = test: scMET, rats p.o. (Test 3); type: in vivo; settings: Test 3, rats p.o.
Protocol: Subcutaneous Metrazol Seizure Threshold Test (scMET): Subcutaneous injection of the convulsant metrazol produces clonic seizures in laboratory animals. […] Animals were pretreated with various doses of the test compound given by i.p. injection. At the previously determined Time to Peak Effect (TPE) of the test compound, the dose of metrazol which will produce convulsions in 97% of animals (CD97: 85 mg/kg in mice) was injected into a loose fold of skin in the midline of the neck. The animals were placed in isolation cages to minimize stress and observed for the next 30 minutes for the presence or absence of a seizure. An episode of clonic spasms, approximately […], of the fore and/or hind limbs, jaws, or vibrissae is taken as the end point.
Rats received test compounds orally.

MES-induced seizures [8] = test: animal or person; type: in vivo, rats; settings: for ED50: Rattus norvegicus, po, MES model, at time of peak effect
MES-induced seizures [9] = test: Maximal Electroshock Test (MES), Test 1, mice i.p.; type: in vivo; settings: for activity in MES model (in words): Test 1, mice i.p.
[10] = 0.5 h, read-out: ScMET 0.5 h, mice, i.p., 0.5 h
[11] = 4 h, read-out: ScMET 4.0 h, mice, i.p., 4.0 h
[12] = Test 2, rats p.o., 30 mg/kg, 1.00 h
[13] = Test 2, rats p.o., 30 mg/kg, 2.00 h
[14] = Test 2, rats p.o., 30 mg/kg, 4.00 h
[15] = Test 3 time to peak effect, rats p.o., 30 mg/kg, 0.5 h
[16] = Test 3 time to peak effect, rats p.o., 30 mg/kg, 1.0 h
[17] = Test 3 time to peak effect, rats p.o., 30 mg/kg, 2.0 h
[18] = Test 3 time to peak effect, rats p.o., 30 mg/kg, 4.0 h
[19] = Test 2, rats p.o., 30 mg/kg, 0.50 h

CC(=O)Oc1ccccc1C(=O)O [Aspirin, reference compound]
release of parent drug / conversion to salicylate (in words) [1]: completely metabolized to salicylate | anti-inflammatory activity (in words) [2]: anti-inflammatory activity from 1 hr through 6 hr with peak maximal activity at 4 hr | Rat paw edema (% inhibition) 1 hour [2]: 31.0 ± 7.2% | Rat paw edema (% inhibition) 2 hour [2]: 52.5 ± 3.4% | Rat paw edema (% inhibition) 4 hour [2]: 60.7 ± 6.9% | Rat paw edema (% inhibition) 6 hour [2]: 42.8 ± 6.9% | salicylate release / absorption profile (in words) [3]: highest during 0.5-6.0 hrs | ulcers (in words) (rats [4]): severe haemorrhagic lesions

CCOC(=O)CC1(CNC(=O)OCCSSCCOC(=O)Nc2nnc(-c3cccc(Cl)c3Cl)c(N)n2)CCCCC1 [I-AA-MPD12]
minimal effective dose (convulsant metrazol [5]; [10]): > 300 mg/kg | minimal effective dose (convulsant metrazol [5]; [11]): > 300 mg/kg | toxicity (in words) (mice): no or mild toxicity | Rotorod Toxicity 0.5 h (mice): — (— = no activity or no toxicity at 300 mg/kg) | Rotorod Toxicity 4.0 h (mice): — (— = no activity or no toxicity at 300 mg/kg) | Toxicity (number of animals exhibiting toxicity/number of animals tested) (rats [6]; [12]): 0/4 | Toxicity (number of animals exhibiting toxicity/number of animals tested) (rats [6]; [13]): 0/4 | Toxicity (number of animals exhibiting toxicity/number of animals tested) (rats [6]; [14]): 0/4 | Toxicity (number of animals exhibiting toxicity/number of animals tested) (rats [6]; Test 3, rats p.o., 50 mg/kg, 1.0 h): 0/4 (50) | Toxicity (number of animals exhibiting toxicity/number of animals tested) (rats [6]; Test 3, rats p.o., 50 mg/kg, 2.0 h): 0/4 (50) | Toxicity (number of animals exhibiting toxicity/number of animals tested) (rats [6]; Test 3, rats p.o., 50 mg/kg, 4.0 h): 0/4 (50) | Toxicity (number of animals exhibiting toxicity/number of animals tested) (rats [6]; Test 3, rats p.o., 50 mg/kg, 6.0 h): 0/4 (50) | Toxicity (number of animals exhibiting toxicity/number of animals tested) (rats [6]; Test 3, rats p.o., 50 mg/kg, 8.0 h): 0/4 (50) | Toxicity (number of animals exhibiting toxicity/number of animals tested) (rats [6]; Test 3, rats p.o., 50 mg/kg, 24 h): 0/4 (50) | ScMET (50 mg/kg) (number of animal protected/number of animal tested) (convulsant metrazol [7]; 1.0 h): 1/4 | ScMET (50 mg/kg) (number of animal protected/number of animal tested) (convulsant metrazol [7]; 2.0 h): 0/4 | ScMET (50 mg/kg) (number of animal protected/number of animal tested) (convulsant metrazol [7]; 4.0 h): 0/4 | ScMET (50 mg/kg) (number of animal protected/number of animal tested) (convulsant metrazol [7]; 6.0 h): 1/4 | ScMET (50 mg/kg) (number of animal protected/number of animal tested) (convulsant metrazol [7]; 8.0 h): 2/4 | ScMET (50 mg/kg) (number of animal protected/number of animal tested) (convulsant metrazol [7]; 24 h): 0/4 | ED50 (MES-induced seizures [8]; rats p.o.): 17.1 mg/kg | MES (number of animal protected/number of animal tested) (MES-induced seizures [8]; [12]): 0/4 | MES (number of animal protected/number of animal tested) (MES-induced seizures [8]; Test 3 ED50 quantification, rats p.o., 6 h, 60 mg/kg): 7/8 | MES (number of animal protected/number of animal tested) (MES-induced seizures [8]; Test 3 time to peak effect, rats p.o., 15 mg/kg, 8.0 h): 1/4 | MES (number of animal protected/number of animal tested) (MES-induced seizures [8]; [15]): 0/4 | MES (number of animal protected/number of animal tested) (MES-induced seizures [8]; [16]): 0/4 | MES (number of animal protected/number of animal tested) (MES-induced seizures [8]; [17]): 1/4 | MES (number of animal protected/number of animal tested) (MES-induced seizures [8]; [18]): 3/4 | MES (number of animal protected/number of animal tested) (MES-induced seizures [8]; Test 3 time to peak effect, rats p.o., 30 mg/kg, 8.0 h): 4/4 | MES (number of animal protected/number of animal tested) (MES-induced seizures [8]; Test 3 time to peak effect, rats p.o., 30 mg/kg, 24 h): 2/4 | minimal effective dose (MES-induced seizures [9]; Mus musculus, ip, 0.5 h, read-out: MES 0.5 h, mice, i.p., 0.5 h, symbol = dose with activity): > 300 mg/kg | activity in MES model (in words) (MES-induced seizures [9]): active in MES | MES, at 6 hours after dosing (MES-induced seizures [9]; mice, i.p., 6 h (footnotes g, m; printed in 4.0 h column)): ++ (++ = activity or toxicity at 100 mg/kg)

Nc1nc(NC(=O)OCCSSCCO)nnc1-c1cccc(Cl)c1Cl [I-A1-PD4]
minimal effective dose (convulsant metrazol [5]; [10]): > 300 mg/kg | minimal effective dose (convulsant metrazol [5]; [11]): > 300 mg/kg | toxicity (in words) (mice): no or mild toxicity | Rotorod Toxicity 0.5 h (mice): — (— = no activity or no toxicity at 300 mg/kg) | Rotorod Toxicity 4.0 h (mice): — (— = no activity or no toxicity at 300 mg/kg) | Toxicity (number of animals exhibiting toxicity/number of animals tested) (rats [6]; [19]): 0/4 | Toxicity (number of animals exhibiting toxicity/number of animals tested) (rats [6]; [12]): 0/4 | Toxicity (number of animals exhibiting toxicity/number of animals tested) (rats [6]; [13]): 0/4 | Toxicity (number of animals exhibiting toxicity/number of animals tested) (rats [6]; [14]): 0/4 | Toxicity (number of animals exhibiting toxicity/number of animals tested) (rats [6]; Test 3, rats p.o., 100 mg/kg, 0.25 h): 0/4 (100) | Toxicity (number of animals exhibiting toxicity/number of animals tested) (rats [6]; Test 3, rats p.o., 100 mg/kg, 0.5 h): 0/4 (100) | Toxicity (number of animals exhibiting toxicity/number of animals tested) (rats [6]; Test 3, rats p.o., 100 mg/kg, 1.0 h): 0/4 (100) | Toxicity (number of animals exhibiting toxicity/number of animals tested) (rats [6]; Test 3, rats p.o., 100 mg/kg, 2.0 h): 0/4 (100) | ScMET (50 mg/kg) (number of animal protected/number of animal tested) (convulsant metrazol [7]; 0.25 h): 1/4^f | ScMET (50 mg/kg) (number of animal protected/number of animal tested) (convulsant metrazol [7]; 0.5 h): 0/4 | ScMET (50 mg/kg) (number of animal protected/number of animal tested) (convulsant metrazol [7]; 1.0 h): 2/4 | ScMET (50 mg/kg) (number of animal protected/number of animal tested) (convulsant metrazol [7]; 2.0 h): 1/4^g | ScMET (50 mg/kg) (number of animal protected/number of animal tested) (convulsant metrazol [7]; 4.0 h): 0/4 | ED50 (MES-induced seizures [8]; rats p.o.): 6.55 mg/kg | MES (number of animal protected/number of animal tested) (MES-induced seizures [8]; [19]): 0/4 | MES (number of animal protected/number of animal tested) (MES-induced seizures [8]; [12]): 1/4 | MES (number of animal protected/number of animal tested) (MES-induced seizures [8]; [13]): 3/4 | MES (number of animal protected/number of animal tested) (MES-induced seizures [8]; [14]): 4/4 | MES (number of animal protected/number of animal tested) (MES-induced seizures [8]; Test 3 ED50 quantification, rats p.o., 4 h, 1.9 mg/kg): 0/8 | MES (number of animal protected/number of animal tested) (MES-induced seizures [8]; Test 3 ED50 quantification, rats p.o., 4 h, 3.8 mg/kg): 4/8 | MES (number of animal protected/number of animal tested) (MES-induced seizures [8]; Test 3 ED50 quantification, rats p.o., 4 h, 7.5 mg/kg): 4/8 | MES (number of animal protected/number of animal tested) (MES-induced seizures [8]; Test 3 ED50 quantification, rats p.o., 4 h, 15 mg/kg): 7/8 | MES (number of animal protected/number of animal tested) (MES-induced seizures [8]; Test 3 ED50 quantification, rats p.o., 4 h, 30 mg/kg): 7/8 | MES (number of animal protected/number of animal tested) (MES-induced seizures [8]; Test 3 time to peak effect, rats p.o., 10 mg/kg, 4.0 h): 4/4 | MES (number of animal protected/number of animal tested) (MES-induced seizures [8]; Test 3 time to peak effect, rats p.o., 10 mg/kg, 6.0 h): 3/4 | MES (number of animal protected/number of animal tested) (MES-induced seizures [8]; Test 3 time to peak effect, rats p.o., 10 mg/kg, 8.0 h): 2/4 | MES (number of animal protected/number of animal tested) (MES-induced seizures [8]; Test 3 time to peak effect, rats p.o., 10 mg/kg, 24 h): 0/4 | MES (number of animal protected/number of animal tested) (MES-induced seizures [8]; Test 3 time to peak effect, rats p.o., 30 mg/kg, 0.25 h): 2/4 | MES (number of animal protected/number of animal tested) (MES-induced seizures [8]; [15]): 2/4 | MES (number of animal protected/number of animal tested) (MES-induced seizures [8]; [16]): 2/4 | MES (number of animal protected/number of animal tested) (MES-induced seizures [8]; [17]): 2/4 | MES (number of animal protected/number of animal tested) (MES-induced seizures [8]; [18]): 4/4 | activity in MES model (in words) (MES-induced seizures [9]): active in MES | MES (number of animal protected/number of animal tested) (MES-induced seizures [9]; mice, i.p., 0.5 h, 100 mg/kg (++)): (1/7) | MES (number of animal protected/number of animal tested) (MES-induced seizures [9]; mice, i.p., 0.5 h, 300 mg/kg (+)): (2/5) | MES (number of animal protected/number of animal tested) (MES-induced seizures [9]; mice, i.p., 4.0 h, 30 mg/kg (+++)): (1/1) | MES (number of animal protected/number of animal tested) (MES-induced seizures [9]; mice, i.p., 4.0 h, 100 mg/kg (++)): (3/3) | MES (number of animal protected/number of animal tested) (MES-induced seizures [9]; mice, i.p., 4.0 h, 300 mg/kg (+)): (1/1)

CC(=O)Oc1ccccc1C(=O)OCCSSCCO[N+](=O)[O-] [I-C1-NOPD4]
release of parent drug / conversion to salicylate (in words) [1]: converting to the expected metabolite (salicylate) | anti-inflammatory activity (in words) [2]: significant activity during the first two hours | Rat paw edema (% inhibition) 1 hour [2]: 42.4 ± 13.3% | Rat paw edema (% inhibition) 2 hour [2]: 44.9 ± 12.9% | Rat paw edema (% inhibition) 4 hour [2]: 24.3 ± 7.7% | Rat paw edema (% inhibition) 6 hour [2]: 8.6 ± 5.1% | salicylate release / absorption profile (in words) [3]: released in a sustained and controlled manner starting from 1 hour through 12 hours | ulcers (in words) (rats [4]): none of the animals treated with the test compounds showed any signs of development of ulcers

Source: US8354455B2, “Prodrugs containing novel bio-cleavable linkers” (Piramal Enterprises Limited and Apparao Satyam, priority 2004, dated 2013)
